{"source": "patent US20110177061A1", "about": "“METHODS OF TREATING AND PREVENTING NEUROLOGICAL DISORDERS USING DOCOSAHEXAENOIC ACID” (MARTEK BIOSCIENCES CORPORATION, priority 2009, published 2011)", "key": {"[1]": {"experiment": "Plasma phospholipid DHA levels in clinical trial", "type": "in vivo, human", "conditions": "DHA treatment group", "description": "(§1) In the study, 402 individuals with mild to moderate Alzheimer's disease participated for 18 months at sites throughout the United States. Participants were randomized so that 60% of participants received approximately 2 grams of DHA (divided into 4 capsules—2 capsules taken twice a day), while 40% of the participants received an identical placebo of corn/soy oil. The DHA soft-gel capsules used in the study were provided by Martek Biosciences Corporation, and contained a microbial oil of 55% DHA (as a percentage of total fatty acids) in triglyceride form, in addition to tocopherol and orange flavoring. The capsules contained no detectable EPA. The placebo was a 50/50 mixture of corn/soy oil and also included mixed tocopherols, ascorbyl, palmitate, orange flavoring, and orange masking agent.\n(§2) Various parameters were measured at baseline and at every 6 months through the conclusion of the trial at 18 months.\n(§3) Plasma phospholipid fatty acid levels were determined using established methods, with modifications for cerebrospinal fluid analysis (Arterburn et al., 2007, Lipids 42(11):1011-1024; Arterburn et al., 2008, J Am Diet Assoc. 108(7):1204-1209). The fatty acid profiles were expressed as a percent of the total μg of fatty acid (weight percent)."}, "[2]": {"experiment": "Cerebrospinal fluid (CSF) DHA levels in CSF sub-study", "type": "in vivo, human", "procedure": "All subjects without contraindication to cerebrospinal fluid (CSF) exam (e.g., anticoagulation) were invited to participate in the CSF study. In these subjects, lumbar puncture was performed in the morning after an overnight fast.\nas §3"}, "[3]": {"test_system": "human patients with mild to moderate Alzheimer's disease", "experiment": "ADAS-cog (co-primary outcome) in clinical trial", "type": "in vivo", "procedure": "as §1, with “A clinical trial was carried out to determine whether chronic DHA supplementation slows the progression of cognitive and functional decline in human patients with mild to moderate Alzheimer's disease. In” for “In”, “agent. Following the eligibility assessment, 238 of the 402 patients were randomly assigned to the DHA treatment group and 164 patients to the placebo group. Of the 238 patient DHA treatment group, 171 patients completed the full 18 month course of treatment. Of the 164 placebo group, 124 patients completed the full 18 month course of treatment. Various parameters were measured at baseline and at every 6 months through the conclusion of the trial at 18 months.” for “agent.”"}, "[4]": {"test_system": "human patients with mild to moderate Alzheimer's disease", "experiment": "CDR-SOB (co-primary outcome) in clinical trial", "type": "in vivo", "procedure": "as §1, with “A clinical trial was carried out to determine whether chronic DHA supplementation slows the progression of cognitive and functional decline in human patients with mild to moderate Alzheimer's disease. In” for “In”, “agent. Following the eligibility assessment, 238 of the 402 patients were randomly assigned to the DHA treatment group and 164 patients to the placebo group. Of the 238 patient DHA treatment group, 171 patients completed the full 18 month course of treatment. Of the 164 placebo group, 124 patients completed the full 18 month course of treatment. Various parameters were measured at baseline and at every 6 months through the conclusion of the trial at 18 months.” for “agent.”"}, "[5]": {"test_system": "human patients with mild to moderate Alzheimer's disease", "experiment": "ADCS-ADL (secondary outcome) in clinical trial", "type": "in vivo", "procedure": "as §1, with “A clinical trial was carried out to determine whether chronic DHA supplementation slows the progression of cognitive and functional decline in human patients with mild to moderate Alzheimer's disease. In” for “In”, “agent. Following the eligibility assessment, 238 of the 402 patients were randomly assigned to the DHA treatment group and 164 patients to the placebo group. Of the 238 patient DHA treatment group, 171 patients completed the full 18 month course of treatment. Of the 164 placebo group, 124 patients completed the full 18 month course of treatment. Various parameters were measured at baseline and at every 6 months through the conclusion of the trial at 18 months.” for “agent.”"}, "[6]": {"test_system": "human patients with mild to moderate Alzheimer's disease", "experiment": "NPI (secondary outcome) in clinical trial", "type": "in vivo", "procedure": "as §1, with “A clinical trial was carried out to determine whether chronic DHA supplementation slows the progression of cognitive and functional decline in human patients with mild to moderate Alzheimer's disease. In” for “In”, “agent. Following the eligibility assessment, 238 of the 402 patients were randomly assigned to the DHA treatment group and 164 patients to the placebo group. Of the 238 patient DHA treatment group, 171 patients completed the full 18 month course of treatment. Of the 164 placebo group, 124 patients completed the full 18 month course of treatment. Various parameters were measured at baseline and at every 6 months through the conclusion of the trial at 18 months.” for “agent.”"}, "[7]": {"test_system": "human patients with mild to moderate Alzheimer's disease", "experiment": "MMSE (secondary outcome) in clinical trial", "type": "in vivo", "procedure": "as §1, with “A clinical trial was carried out to determine whether chronic DHA supplementation slows the progression of cognitive and functional decline in human patients with mild to moderate Alzheimer's disease. In” for “In”, “agent. Following the eligibility assessment, 238 of the 402 patients were randomly assigned to the DHA treatment group and 164 patients to the placebo group. Of the 238 patient DHA treatment group, 171 patients completed the full 18 month course of treatment. Of the 164 placebo group, 124 patients completed the full 18 month course of treatment. Various parameters were measured at baseline and at every 6 months through the conclusion of the trial at 18 months.” for “agent.”"}, "[8]": {"test_system": "human patients with mild to moderate Alzheimer's disease", "experiment": "MRI sub-study, brain volume change", "type": "in vivo", "procedure": "as §1, with “A clinical trial was carried out to determine whether chronic DHA supplementation slows the progression of cognitive and functional decline in human patients with mild to moderate Alzheimer's disease. In” for “In”"}, "[9]": {"test_system": "human patients with mild to moderate Alzheimer's disease", "experiment": "Vital signs and lab results in clinical trial", "type": "in vivo", "conditions": "18 month trial", "procedure": "(§4) A clinical trial was carried out to determine whether chronic DHA supplementation slows the progression of cognitive and functional decline in human patients with mild to moderate Alzheimer's disease.\nas §1, §2"}, "[10]": {"test_system": "human patients with mild to moderate Alzheimer's disease", "experiment": "Pre-planned secondary analysis of DHA treatment and ApoE4 allelic status, all outcome measures", "type": "in vivo", "procedure": "as §4, §1\nA pre-planned secondary analysis was also carried out examining the effect of DHA treatment and ApoE4 (E4) allelic status. […] This effect was also evident on the MMSE (−3.36±4.78 in DHA compared to 5.12±5.08 in placebo; p=0.034), but was not present on the CDR-SOB, the ADCS-ADL, or the NPI."}, "[11]": {"conditions": "all subjects, LME model, GEE or ANCOVA"}}, "note": "Entries after “also recorded” stand apart in the source; their conditions may differ."}
{"smiles": "CC/C=C\\C/C=C\\C/C=C\\C/C=C\\C/C=C\\C/C=C\\CCC(=O)O", "note": "[DHA, (all-Z)-4,7,10,13,16,19-docosahexaenoic acid]", "values": [{"measurement": "Plasma phospholipid DHA", "setting": "[1]; approx. 2 g DHA/day oral, 6 months", "result": 9.1, "unit": "wt %"}, {"measurement": "Plasma phospholipid DHA", "setting": "[1]; approx. 2 g DHA/day oral, 12 months", "result": 10.23, "unit": "wt %"}, {"measurement": "Plasma phospholipid DHA", "setting": "[1]; approx. 2 g DHA/day oral, 18 months, p<0.001", "result": 9.77, "unit": "wt %"}, {"measurement": "Plasma phospholipid DHA", "setting": "[1]; baseline (before treatment)", "result": 3.18, "unit": "wt %"}, {"measurement": "CSF DHA", "setting": "[2]; DHA supplemented group n=29, 18 months, p<0.001", "result": 3.45, "unit": "wt %"}, {"measurement": "CSF DHA", "setting": "[2]; DHA supplemented group n=29, baseline (before treatment)", "result": 2.53, "unit": "wt %"}, {"measurement": "ADAS-cog points change over 18 months, E4-negative group", "setting": "[3]; ApoE4-negative, 61 DHA subjects, placebo 10.11±10.58 (48 subjects), p=0.028", "result": "6.23±8.58", "unit": "points"}, {"measurement": "Difference DHA vs placebo in 12 month ADAS scores", "setting": "[3]; Wilcoxan rank p=0.027, FIG. 1", "result": "modest difference"}, {"measurement": "Difference DHA vs placebo on ADAS-cog (rate of change)", "setting": "[3]; all subjects, LME model, 18 months", "result": "did not differ; also recorded: no significant difference"}, {"measurement": "ADAS-cog points change over 18 months", "setting": "[3]; all subjects, unadjusted, placebo 7.98±9.84, p=0.41", "result": "8.27±8.9", "unit": "points"}, {"measurement": "ADAS-cog decline in ApoE4 negative subjects with MMSE >21 compared to MMSE ≦21", "setting": "[3]; post hoc analysis, FIGS. 7A and 7B", "result": "significantly less decline; also recorded: more pronounced"}, {"measurement": "Difference in the effect of DHA administration on ADAS-cog between ApoE4-positive and ApoE4-negative subjects", "setting": "[3]; pre-specified sub-group analysis, FIGS. 6A and 6B", "result": "statistically significant difference"}, {"measurement": "DHA treatment effect on CDR-SOB in the E4-negative group", "setting": "[4]; ApoE4-negative subjects", "result": "not present"}, {"measurement": "Difference DHA vs placebo on CDR-SOB (rate of change)", "setting": "[4]; all subjects, LME model, GEE or ANCOVA, ITT or per protocol", "result": "also did not differ; also recorded: no significant difference"}, {"measurement": "CDR-SOB points change over 18 months", "setting": "[4]; all subjects, placebo 2.87±2.93, p=0.68", "result": "2.93±2.83", "unit": "points"}, {"measurement": "DHA treatment effect on ADCS-ADL in the E4-negative group", "setting": "[5]; ApoE4-negative subjects", "result": "not present"}, {"measurement": "ADCS-ADL points change over 18 months (rate of decline)", "setting": "[5]; all subjects, LME analysis, placebo 10.43±11.74, p=0.38", "result": "11.51±13.23", "unit": "points"}, {"measurement": "Difference DHA vs placebo on ADCS-ADL", "setting": "[5]; [11]", "result": "no significant difference"}, {"measurement": "DHA treatment effect on NPI in the E4-negative group", "setting": "[6]; ApoE4-negative subjects", "result": "not present"}, {"measurement": "NPI points change over 18 months", "setting": "[6]; all subjects, LME analysis, placebo 5.09±15.08, p=0.11", "result": "2.93±13.62", "unit": "points"}, {"measurement": "Difference DHA vs placebo on NPI", "setting": "[6]; [11]", "result": "no significant difference"}, {"measurement": "MMSE change, E4-negative group", "setting": "[7]; ApoE4-negative, placebo printed 5.12±5.08, p=0.034", "result": "−3.36±4.78"}, {"measurement": "MMSE points change from baseline to 18 months", "setting": "[7]; all subjects, ANCOVA, placebo −4.0±4.7, p=0.88", "result": "−3.70±4.95", "unit": "points"}, {"measurement": "Difference DHA vs placebo on MMSE", "setting": "[7]; all subjects, after 18 months of treatment", "result": "no significant difference"}, {"measurement": "Absolute volume change over 18 months, total ventricular volume", "setting": "[8]; MRI sub-study n=53 DHA, placebo 8.1±5.9, p=0.55", "result": "9.1±5.0", "unit": "cm^3"}, {"measurement": "Absolute volume change over 18 months, total brain", "setting": "[8]; MRI sub-study n=53 DHA, placebo 24.0±14.6, p=0.79", "result": "24.7±12.3", "unit": "cm^3"}, {"measurement": "Absolute volume change over 18 months, right hippocampus", "setting": "[8]; MRI sub-study n=53 DHA, placebo 148±109, p=0.29", "result": "176±128", "unit": "mm^3"}, {"measurement": "Absolute volume change over 18 months, left hippocampus", "setting": "[8]; MRI sub-study n=53 DHA, placebo 175±135, p=0.17", "result": "141±104", "unit": "mm^3"}, {"measurement": "Effect of DHA treatment on absolute amount of brain volume change over 18 months", "setting": "[8]; MRI sub-study, ANCOVA, total brain, hippocampus, total ventricular volume", "result": "no evidence of an effect"}, {"measurement": "Effect of DHA on rates of brain atrophy among ApoE4 negative subjects", "setting": "[8]; MRI sub-study, n=21 DHA, n=17 placebo", "result": "Neither was an effect of DHA seen"}, {"measurement": "Cholesterol level change", "setting": "[9]", "result": "modest increase"}, {"measurement": "Diastolic blood pressure change", "setting": "[9]", "result": "modest decline"}, {"measurement": "HDL level change", "setting": "[9]", "result": "no change"}, {"measurement": "Heart rate change", "setting": "[9]", "result": "modest decline"}, {"measurement": "LDL level change", "setting": "[9]", "result": "modest increase"}, {"measurement": "Systolic blood pressure change", "setting": "[9]", "result": "no change"}, {"measurement": "Triglycerides change", "setting": "[9]", "result": "modest decline"}, {"measurement": "Weight change", "setting": "[9]", "result": "no change"}, {"measurement": "Benefit in reducing decline in cognitive ability in AD subjects negative for the ApoE4 allele", "setting": "[10]; ApoE4-negative subjects afflicted with AD", "result": "significant benefit"}, {"measurement": "DHA treatment effect on any outcome measure in the E4-positive group", "setting": "[10]; ApoE4-positive subjects", "result": "no DHA treatment effect"}]}
